Results published in patent US8374794B1, “Protein synthesis modulators” (Rib-X Pharmaceuticals, Inc., priority 2003, dated 2013).

Target: T1, H. marismortui large ribosomal subunit (Haloarcula marismortui, UniProt P32411)
T1 construct: Ribosomes were purified and crystallized as described previously; endogenous in cells; host or cells: Haloarcula marismortui (ribosomes purified from the organism)
Assay: X-ray diffraction of large ribosomal subunit crystals soaked with cycloheximide
Assay type: binding
Conditions: crystals soaked with about 30 mM cycloheximide, 1% DMSO, 4° C., 24 hours; difference Fourier maps at 3.0 A resolution
Description: The present invention is based, in part, upon the three-dimensional structure of cycloheximide when associated with the large ribosomal subunit. Crystals of the H. marismortui large ribosomal subunit were soaked with cycloheximide at a concentration of about 30 mM, which is equivalent to about […], and the structure of the large ribosome subunit complexed with cycloheximide was resolved via X-ray diffraction studies.
Briefly, a small amount of a concentrated cycloheximide solution was added to a large subunit crystal suspended in stabilization solution and incubated for several hours. Following freezing and the other procedures normally used to prepare such crystals for experimental use, X-ray diffraction data were collected from the cycloheximide containing crystals. […]
The atomic co-ordinates of the large ribosomal subunit associated with cycloheximide are recorded on compact disk, Disk No. 1, under file name cycloheximide.pdb. […]
Electron density corresponding to the antibiotic was first seen in Fo (antibiotic)-Fc (native) difference Fourier maps at 3.0 A resolution. […] The atomic co-ordinates defining the structure of cycloheximide when bound to the large ribosomal subunit are recorded on compact disk, Disk No. 1 under file name cycloheximide.pdb.

C[C@@H]1C[C@@H]([C@H](O)CC2CC(=O)NC(=O)C2)C(=O)[C@@H](C)C1 (relative stereo) [cycloheximide, [1S-[1α(S*),3α,5β]]-4-[2-(3,5-dimethyl-2-oxocyclohexyl)-2-hydroxyethyl]-2,6-piperidinedione]
binding of cycloheximide in the large ribosomal subunit (specific vs. non-specific sites): bound to a single location in the large ribosomal subunit
